From BindingDB's records for doi:10.1111/j.1747-0285.2009.00852.x (University of Jordan, 2009)

Molecular target: Reverse transcriptase (Human immunodeficiency virus 2, UniProt Q06347)
Experiment: In Vitro Enzyme Assay
Conditions: pH 7.8; 37 °C
Protocol: The reverse transcriptase inhibitory activity of compound was evaluated by a non-radioactive colorimetric assay method. This procedure uses RT to synthesize DNA starting from the template/primer hybridpoly (A) x oligo (dT)15 and avoids the use of radio-labeled nucleotides.

Reverse transcriptase, sequence (Q06347 whole entry): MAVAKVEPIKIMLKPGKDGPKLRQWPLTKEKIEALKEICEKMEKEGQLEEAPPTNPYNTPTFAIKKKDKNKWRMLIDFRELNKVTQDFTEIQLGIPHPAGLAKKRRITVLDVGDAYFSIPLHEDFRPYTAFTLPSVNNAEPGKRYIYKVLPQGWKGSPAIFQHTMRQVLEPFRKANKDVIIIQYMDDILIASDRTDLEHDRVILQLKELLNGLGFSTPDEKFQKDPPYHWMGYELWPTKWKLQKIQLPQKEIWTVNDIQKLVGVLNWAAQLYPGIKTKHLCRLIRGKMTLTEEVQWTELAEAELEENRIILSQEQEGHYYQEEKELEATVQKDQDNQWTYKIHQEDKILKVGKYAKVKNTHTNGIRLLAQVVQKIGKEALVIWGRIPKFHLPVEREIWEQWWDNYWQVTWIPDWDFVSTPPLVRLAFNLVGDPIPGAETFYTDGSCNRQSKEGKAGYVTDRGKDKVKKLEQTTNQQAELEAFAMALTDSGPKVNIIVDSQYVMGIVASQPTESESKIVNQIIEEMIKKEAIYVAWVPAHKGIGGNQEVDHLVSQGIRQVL

## Cc1ccnc2c1NC(=O)c1cccnc1N2C1CC1 [BI-RG-587]
  IC50: 4.2 µM

## Cc1ccc(S(=O)(=O)Oc2ccc(Cl)cc2Cl)cc1 [NCI Code, 4179]
  IC50: 87.1 µM

## CCCCN(CCCC)C(=O)c1ccc(Cl)cc1Cl [NCI Code, 6050]
  IC50: 31.3 µM

## CCCC(=O)Oc1ccc(C(C)(C)C)cc1Br [NCI Code, 6927]
  IC50: 335 µM

## CCCCCCc1nc2c([nH]1)c(=O)n(C)c(=O)n2C [NCI Code, 14129]
  IC50: 18.9 µM
